Test system: fine lines, wrinkles in the outer canthus of the eyes (crow's feet area)
Test: Panelist self-assessment questionnaire, Example 1
Assay type: in vivo, human
Details: for Q2 appearance of my skin around either of my eyes, Average Score: Score 1 (Better) to 5 (Worse); for Q4 any discomfort, other than slight tingling, in the treated area during the study, Average Score: Score 1 (No) to 5 (Yes, everyday lasting more than an hour); for Q1 My wrinkles in the eye area have improved, Average Score: Score 1 (Strongly agree) to 5 (Strongly disagree); for Q3 how do you feel about the treated area surrounding your eyes and the appearance of wrinkles, Average Score: Score 1 (Very Satisfied) to 5 (Very Dissatisfied); for Q2 appearance of my skin around either of my eyes, % Responders Score 1: Score 1 = Better; for Q4 any discomfort, other than slight tingling, in the treated area during the study, % Responders Score 1: Score 1 = No; for Q1 My wrinkles in the eye area have improved, % Responders Score 1: Score 1 = Strongly agree; for Q3 how do you feel about the treated area surrounding your eyes and the appearance of wrinkles, % Responders Score 1: Score 1 = Very Satisfied; for Q1 My wrinkles in the eye area have improved, % Responders Score 2: Score 2 = Agree; for Q2 appearance of my skin around either of my eyes, % Responders Score 2: Score 2 = Little better; for Q3 how do you feel about the treated area surrounding your eyes and the appearance of wrinkles, % Responders Score 2: Score 2 = Satisfied; for Q4 any discomfort, other than slight tingling, in the treated area during the study, % Responders Score 2: Score 2 = Yes, occasional discomfort lasting less than an hour; for Q1 My wrinkles in the eye area have improved, % Responders Score 3: Score 3 = Neither agree or disagree
Description: Three groups of women were recruited to evaluate and compare the efficacy of three anti-aging test products (targeting the periorbital eye area) intended to reduce the appearance of fine lines, wrinkles in the outer canthus of the eyes (crow's feet area) over a 12 week period. Wrinkle assessment was conducted instrumentally using a Visioscan image analysis system. Effectiveness of the test product was evaluated using panelist self-assessment via questionnaire responses comprised of 3-4 questions (Q1, Q2, Q3 & Q4). Each stage in the progression of treatments was photographically documented using a High Resolution Scientifically Matched Photography technique. Image analysis was utilized to quantify changes in fine lines and crow's feet condition observed in the Scientifically Matched Photographs.
Subject Selection: • Number: Six subjects (two per group) to complete the study. • Sex: Females • Race: Caucasian/Asian/Hispanic • Age Range: 40 through 60 years old
Test samples: • Topical 0.15% of Compound #222 in Oil (a 50/50 mixture of • Propylene Glycol Dicaprylate/Dicaprate and Caprylic/Capric Triglyceride) (Cohort 1) • Topical 0.15% of Compound #222 in PEG400 (Cohort 2) • Topical 0.05% of Compound #222 in PEG400 (Cohort 3)
All subjects were instructed to use the test material once a day, as part of their daily skin care routine. Immediately following baseline evaluations, the subjects were issued the product with the following instructions:
GROUP 1—Compound #222 Topical 0.15% in oil (Cohort 1): The subjects were instructed to hold the bottle at an angle such that the roller-ball was at bottom and apply the roller-ball to the periorbital area, including the crow's feet area, 2-3 times, starting from the area under the eye (and above the cheekbone) and moving up towards the outer tip of the eye-brow. After 2-3 rolls, they were able to see wetness on the treated area. This procedure was repeated for the other eye.
GROUPS 2 & 3 Compound #222 Topical 0.15% in PEG (Cohort 2) & Compound #222 Topical 0.05% in PEG (Cohort 3): The subjects were instructed to hold the dispenser upright with one hand and with the tip of the index finger on the pump (similar to holding a spray container), pour a small amount of the product into the palm of their other hand by pumping once or twice. The product was then applied on to the periorbital area, including the crow's feet area, of both eyes with their index finger.
[…] After acclimating to ambient conditions, High Resolution Scientifically Matched Photographs were be taken and biophysical measurements (Surface Evaluation of Living Skin via Visioscan) were repeated using the standard template to identify test sites on the face. In addition (during the acclimation period) all participants were be asked to fill out a self-assessment questionnaire.
The source data was Visioscan and PhotoGrammetrix Image Analysis readings along with subjective assessments, which were totaled and reported as average scores. Photographs were placed side by side as to compare the photographs of before and after application of the test product in the eye area. Wrinkle reduction analysis source data consisted of crow's feet area quantification in relative units (px), collected at baseline and, the week 2, 4, 8 and 12 evaluations. The data obtained via Visioscan and from PhotoGrammetrix Image Analysis was quoted as % differences from baseline at each of the previously described time points. A paired t-test analysis was conducted in order to compare the results of post test product application measurements to baseline measurements where applicable. Statistical significance was established if p≤(α=0.05) was calculated.

[1] = Day 7, Topical 0.05% in PEG (Cohort 3)
[2] = Day 7, Topical 0.15% in Oil (Cohort 1)
[3] = Day 7, Topical 0.15% in PEG (Cohort 2)
[4] = Day 14, Topical 0.05% in PEG (Cohort 3)
[5] = Day 14, Topical 0.15% in Oil (Cohort 1)
[6] = Day 14, Topical 0.15% in PEG (Cohort 2)

`O=C(CCC(=O)c1ccc2c(c1)OCO2)c1ccccc1` [#222] was tested, and the “Q2 appearance of my skin around either of my eyes, Average Score” value (from here on “Q2 appearance … Average Score”) [1] was 1.50, the “Q4 any discomfort, other than slight tingling, in the treated area during the study, Average Score” value (“Q4 any discomfort … Average Score” below) [1] was 1.00 and the “Q1 My wrinkles in the eye area have improved, Average Score” value (“Q1 My wrinkles … Average Score” for short) [1] was 2.00. The “Q3 how do you feel about the treated area surrounding your eyes and the appearance of wrinkles, Average Score” value [1] was 2.00, the “Q2 appearance … Average Score” value [2] was 2.50 and the “Q4 any discomfort … Average Score” value [2] was 1.50. For the same compound, the “Q1 My wrinkles … Average Score” value [2] was 3.50, the “Q3 how do you feel about the treated area surrounding your eyes and the appearance of wrinkles, Average Score” value [2] was 2.50 and the “Q2 appearance … Average Score” value [3] was 2.50. For the same compound, the “Q4 any discomfort … Average Score” value [3] was 1.50, the “Q1 My wrinkles … Average Score” value [3] was 3.50 and the “Q3 how do you feel about the treated area surrounding your eyes and the appearance of wrinkles, Average Score” value [3] was 2.50. For the same compound, the “Q2 appearance … Average Score” value [4] was 1.50, the “Q4 any discomfort … Average Score” value [4] was 1.00 and the “Q1 My wrinkles … Average Score” value [4] was 1.50. The “Q3 how do you feel about the treated area surrounding your eyes and the appearance of wrinkles, Average Score” value [4] was 1.50, the “Q2 appearance … Average Score” value [5] was 2.50 and the “Q4 any discomfort … Average Score” value [5] was 1.50. The “Q1 My wrinkles … Average Score” value [5] was 3.00, the “Q3 how do you feel about the treated area surrounding your eyes and the appearance of wrinkles, Average Score” value [5] was 2.00 and the “Q2 appearance … Average Score” value [6] was 2.50. For the same compound, the “Q4 any discomfort … Average Score” value [6] was 2.50, the “Q1 My wrinkles … Average Score” value [6] was 3.00 and the “Q3 how do you feel about the treated area surrounding your eyes and the appearance of wrinkles, Average Score” value [6] was 3.00. For the same compound, the “Q2 appearance of my skin around either of my eyes, % Responders Score 1” value (shortened to “Q2 appearance … % Responders Score 1”) [1] was 50%, the “Q2 appearance … % Responders Score 1” value [2] was 0% and the “Q2 appearance … % Responders Score 1” value [3] was 0%. The “Q2 appearance … % Responders Score 1” value [4] was 50%, the “Q2 appearance … % Responders Score 1” value [5] was 0% and the “Q2 appearance … % Responders Score 1” value [6] was 0%. For the same compound, the “Q4 any discomfort, other than slight tingling, in the treated area during the study, % Responders Score 1” value (“Q4 any discomfort … % Responders Score 1” below) [1] was 100%, the “Q4 any discomfort … % Responders Score 1” value [2] was 50% and the “Q4 any discomfort … % Responders Score 1” value [3] was 50%. The “Q4 any discomfort … % Responders Score 1” value [4] was 100%, the “Q4 any discomfort … % Responders Score 1” value [5] was 50% and the “Q4 any discomfort … % Responders Score 1” value [6] was 50%. For the same compound, the “Q1 My wrinkles in the eye area have improved, % Responders Score 1” value (“Q1 My wrinkles … % Responders Score 1” below) [1] was 0%, the “Q1 My wrinkles … % Responders Score 1” value [2] was 0% and the “Q1 My wrinkles … % Responders Score 1” value [3] was 0%. For the same compound, the “Q1 My wrinkles … % Responders Score 1” value [4] was 50%, the “Q1 My wrinkles … % Responders Score 1” value [5] was 0% and the “Q1 My wrinkles … % Responders Score 1” value [6] was 0%. For the same compound, the “Q3 how do you feel about the treated area surrounding your eyes and the appearance of wrinkles, % Responders Score 1” value [1] was 50%, the “Q3 how do you feel about the treated area surrounding your eyes and the appearance of wrinkles, % Responders Score 1” value [2] was 0% and the “Q3 how do you feel about the treated area surrounding your eyes and the appearance of wrinkles, % Responders Score 1” value [3] was 0%. For the same compound, the “Q3 how do you feel about the treated area surrounding your eyes and the appearance of wrinkles, % Responders Score 1” value [4] was 50%, the “Q3 how do you feel about the treated area surrounding your eyes and the appearance of wrinkles, % Responders Score 1” value [5] was 50% and the “Q3 how do you feel about the treated area surrounding your eyes and the appearance of wrinkles, % Responders Score 1” value [6] was 0%. For the same compound, the “Q1 My wrinkles in the eye area have improved, % Responders Score 2” value (“Q1 My wrinkles … % Responders Score 2” for short) [1] was 100%, the “Q1 My wrinkles … % Responders Score 2” value [2] was 50% and the “Q1 My wrinkles … % Responders Score 2” value [3] was 0%. The “Q1 My wrinkles … % Responders Score 2” value [4] was 50%, the “Q1 My wrinkles … % Responders Score 2” value [5] was 50% and the “Q1 My wrinkles … % Responders Score 2” value [6] was 50%. The “Q2 appearance of my skin around either of my eyes, % Responders Score 2” value (from here on “Q2 appearance … % Responders Score 2”) [1] was 50%, the “Q2 appearance … % Responders Score 2” value [2] was 50% and the “Q2 appearance … % Responders Score 2” value [3] was 50%. For the same compound, the “Q2 appearance … % Responders Score 2” value [4] was 50%, the “Q2 appearance … % Responders Score 2” value [5] was 50% and the “Q2 appearance … % Responders Score 2” value [6] was 50%. The “Q3 how do you feel about the treated area surrounding your eyes and the appearance of wrinkles, % Responders Score 2” value [1] was 0%, the “Q3 how do you feel about the treated area surrounding your eyes and the appearance of wrinkles, % Responders Score 2” value [2] was 50% and the “Q3 how do you feel about the treated area surrounding your eyes and the appearance of wrinkles, % Responders Score 2” value [3] was 50%. The “Q3 how do you feel about the treated area surrounding your eyes and the appearance of wrinkles, % Responders Score 2” value [4] was 50%, the “Q3 how do you feel about the treated area surrounding your eyes and the appearance of wrinkles, % Responders Score 2” value [5] was 0% and the “Q3 how do you feel about the treated area surrounding your eyes and the appearance of wrinkles, % Responders Score 2” value [6] was 50%. The “Q4 any discomfort, other than slight tingling, in the treated area during the study, % Responders Score 2” value (shortened to “Q4 any discomfort … % Responders Score 2”) [1] was 0%, the “Q4 any discomfort … % Responders Score 2” value [2] was 50% and the “Q4 any discomfort … % Responders Score 2” value [3] was 50%. For the same compound, the “Q4 any discomfort … % Responders Score 2” value [4] was 0%, the “Q4 any discomfort … % Responders Score 2” value [5] was 50% and the “Q4 any discomfort … % Responders Score 2” value [6] was 0%. For the same compound, the “Q1 My wrinkles in the eye area have improved, % Responders Score 3” value (from here on “Q1 My wrinkles … % Responders Score 3”) [1] was 0%, the “Q1 My wrinkles … % Responders Score 3” value [2] was 0% and the “Q1 My wrinkles … % Responders Score 3” value [3] was 50%. For the same compound, the “Q1 My wrinkles … % Responders Score 3” value [4] was 0%, the “Q1 My wrinkles … % Responders Score 3” value [5] was 0% and the “Q1 My wrinkles … % Responders Score 3” value [6] was 0%.
